According to patent publication US8815529B2, “Sulfotransferase assay” (Research & Diagnostics Systems, Inc., priority 2011, dated 2014):

What was measured:
CHST3 = target: T1, CHST3 (Homo sapiens, UniProt Q7LGC8); test: CHST3 substrate curves for CS and PAPS, gPAPP-coupled assay; assay type: biochemical
T1 construct: purchased R & D Systems
T1 sequence (Q7LGC8 1-479): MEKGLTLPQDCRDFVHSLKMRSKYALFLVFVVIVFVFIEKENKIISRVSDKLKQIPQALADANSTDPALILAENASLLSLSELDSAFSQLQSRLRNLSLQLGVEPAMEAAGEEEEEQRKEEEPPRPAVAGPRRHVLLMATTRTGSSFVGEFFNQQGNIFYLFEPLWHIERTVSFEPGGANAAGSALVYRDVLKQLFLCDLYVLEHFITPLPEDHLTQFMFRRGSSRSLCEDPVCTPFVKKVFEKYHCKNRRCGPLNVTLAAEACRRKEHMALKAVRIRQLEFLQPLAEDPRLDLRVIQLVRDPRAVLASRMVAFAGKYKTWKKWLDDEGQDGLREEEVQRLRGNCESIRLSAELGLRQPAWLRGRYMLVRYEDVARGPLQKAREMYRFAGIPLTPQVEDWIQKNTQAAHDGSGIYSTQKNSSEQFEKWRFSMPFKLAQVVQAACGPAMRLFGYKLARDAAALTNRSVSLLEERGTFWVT
Procedure: (§1) In the following examples, the gPAPP used was recombinant mouse gPAPP expressed in CHO cells as an N-terminal His-tagged recombinant protein containing amino acids from E51 to K356, created by R & D Systems. The sequence was based on accession number NP 808398 from the National Center for Biotechnology Information. The chondroitin sulfate (CS) and p-nitrophenol (pNP) were obtained from Sigma Aldrich. The PAPS was prepared by R & D Systems using recombinant S. cerevisiae ATP sulurylase and P. chrysogenum APS kinase. The APS kinase was also prepared by R & D Systems. Recombinant human SULT1A1, CHST3, CD73, TNAP and Malachite Green Phosphate Detection Kit were from R & D Systems. Protein concentrations were quantified using the Bradford assay as described by Bradford, M. M., A rapid and sensitive method for the quantitation of microgram quantities of protein utilizing the principle of protein-dye binding. Anal Biochem. 1976. Vol 72, Page 248-254, the relevant portions of which are hereby incorporated by reference. Phosphate levels were determined using the Malachite Green Phosphate Detection Kit available from R & D Systems, according to the package instructions. All examples were performed in a buffer of 25 mM Tris at pH 7.5.
Carbohydrate sulfotransferase 3 (CHST3) is a sulfotransferase which is known to catalyze the sulfation of N-acetylgalactosamine at the 6-O position. In a first series of reactions, 1 μg CHST3 was combined with 1 μg gPAPP and increasing concentrations of CS in 50 μl assay buffer containing 0.8 mM PAPS, 10 mM MgCl2 at pH 7.5. In a second series of reactions, 0.4 μg CHST3 was combined with 1 μg gPAPP and increasing concentrations of PAPS in 50 μL assay buffer containing […], 10 mg/ml CS, 10 mM MgCl2 at pH 7.5.
An enzyme dose curve was then created for CHST3 at the optimal concentrations for both the donor and acceptor substrates in FIG. 11. To create the dose curve, 1 μg gPAPP was combined with increasing amounts of CHST3 in the presence of 10 mg/ml of CS and 0.5 mM of PAPS in 50 μl assay buffer containing 10 mM MgCl2 at pH 7.5.

gPAPP [1] = target: T2, gPAPP (Mus musculus, UniProt Q80V26); test: Specificity of gPAPP on 3′-AMP, 5′-AMP, PAP and PAPS (phosphate release); assay type: biochemical; conditions: for activity of gPAPP alone on the nucleotide: 1 μg gPAPP; for activity of gPAPP alone on the nucleotide / phosphate released by gPAPP versus amount of gPAPP: 10 mM Mg2+; for phosphate released by gPAPP versus amount of gPAPP: 50 nmol PAP or PAPS, pH 7.5, 20 minutes
T2 construct: N-terminal His-tagged recombinant protein containing amino acids from E51 to K356; His tag (N); host or cells: CHO cells
T2 sequence (Q80V26 51-356): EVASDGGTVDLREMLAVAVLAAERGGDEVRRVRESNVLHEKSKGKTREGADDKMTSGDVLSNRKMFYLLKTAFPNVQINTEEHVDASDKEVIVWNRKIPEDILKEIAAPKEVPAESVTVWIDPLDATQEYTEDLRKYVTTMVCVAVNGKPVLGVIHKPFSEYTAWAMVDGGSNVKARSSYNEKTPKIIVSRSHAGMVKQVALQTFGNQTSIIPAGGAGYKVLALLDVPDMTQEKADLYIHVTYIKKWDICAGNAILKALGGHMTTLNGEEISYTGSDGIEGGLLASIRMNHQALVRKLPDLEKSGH
Procedure: as §1
The specificity of gPAPP was first tested on 3′-AMP, 5′-AMP and PAP in the absence or presence of CD73 by combining 10 nmol of either 3′-AMP, 5′-AMP or PAP with 1 μg gPAPP and/or 0.1 μg CD73 in 50 μL assay buffer containing 10 mM Mg^2 at pH 7.5. In a parallel experiment, the same amount of nucleotide was combined with tissue-non-specific alkaline phosphatase (TNAP) at pH 9.0. The ratio between the phosphate released by gPAPP and/or CD73 (Pi) and the phosphate released by TNAP (PiTNAP) was plotted versus the nucleotide and phosphatases in FIG. 5. […] When gPAPP and CD73 were used together, they released twice as much phosphate from PAP than gPAPP alone.
The specificity of gPAPP was tested on PAP and PAPS. In this example, 50 nmol of either PAP or PAPS was treated with different amounts of gPAPP in 50 μL assay buffer containing 10 mM Mg^2 at pH 7.5 for 20 minutes. The released phosphate was plotted versus the amount of gPAPP.

gPAPP [2] = target: T2, gPAPP; test: Inhibition of gPAPP hydrolysis of PAP by PAPS; assay type: biochemical; conditions: 0.5 mM PAPS, amount of PAP greater than the coupling capacity
Procedure: as §1, with “Vol 72, Page 248-254, the relevant portions of which are hereby incorporated by reference.” left out, “All examples were performed in a buffer of 25 mM Tris at pH 7.5.” left out
In this example, the coupling capacity of gPAPP was determined. […] The coupling capacity of gPAPP was determined by combining 1 μg gPAPP with increasing amounts of PAP, in the presence or absence of 0.5 mM PAPS in 50 μL assay buffer containing 10 mM Mg^2+ at pH 7.5 for either 20 or 40 minutes. […]

SULT1A1 [3] = target: T3, SULT1A1 (Homo sapiens, UniProt P50225); conditions: read-out: half maximal velocity (Km); reported; cited from earlier work
T3 sequence (P50225 whole entry): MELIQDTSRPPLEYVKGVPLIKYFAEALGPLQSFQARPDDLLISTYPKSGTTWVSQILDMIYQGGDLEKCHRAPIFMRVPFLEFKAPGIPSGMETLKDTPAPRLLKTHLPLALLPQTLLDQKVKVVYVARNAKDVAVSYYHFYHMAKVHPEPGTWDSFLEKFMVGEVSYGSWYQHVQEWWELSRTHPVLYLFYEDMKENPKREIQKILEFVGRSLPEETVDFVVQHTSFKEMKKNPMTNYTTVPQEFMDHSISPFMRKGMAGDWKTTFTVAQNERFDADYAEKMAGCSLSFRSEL

SULT1A1 [4] = target: T3, SULT1A1; test: SULT1A1 velocity versus pNP concentration, gPAPP/CD73-coupled assay; assay type: biochemical; design: purchased R & D Systems; conditions: 0.1 μg SULT1A1, 0.25 mM PAPS, gPAPP and CD73
Procedure: as §1, with “Anal Biochem. 1976. Vol 72, Page 248-254, the relevant portions of which are hereby incorporated by reference.” left out, “All examples were performed in a buffer of 25 mM Tris at pH 7.5.” left out
A series of reactions were performed by combining increasing concentrations of pNP with 0.1 μg SULT1A1, 2 μg PAPP and 0.1 μg CD73 in 200 μL of an assay buffer containing 0.25 mM PAPS, 10 mM MgCl2 at pH 7.5. […] These values are consistent with reported values for SULT1A1 determined using radioisotope assays in the literature.

sulfotransferases = conditions: reported; cited from earlier work

## chondroitin sulfate [CS]
CHST3; 1 μg CHST3, 0.8 mM PAPS
  concentration for half-maximal velocity (Km for CS): about 2 mg/ml
  substrate inhibition: no substrate inhibition
CHST3; highest point of the curve of FIG. 10A
  optimal concentration (visually determined): > 5 mg/mL

## Nc1ncnc2c1ncn2[C@@H]1O[C@H](COP(=O)(O)O)[C@@H](O)[C@H]1O [5′-AMP, 5-adenosine monophosphate]
gPAPP [1]; 10 nmol nucleotide, pH 7.5
  activity of gPAPP alone on the nucleotide: not

## Nc1ncnc2c1ncn2[C@@H]1O[C@H](COP(=O)(O)OS(=O)(=O)O)[C@@H](OP(=O)(O)O)[C@H]1O [PAPS, 3′-phosphoadenosine-5′-phosphosulfate]
gPAPP [1]
  phosphate released by gPAPP versus amount of gPAPP: showed no change
gPAPP [2]
  inhibition of the hydrolysis of PAP: ~20%
CHST3; 0.4 μg CHST3, 10 mg/ml CS
  level above which substrate inhibition occurred: above 0.5 mM
CHST3; 0.4 μg CHST3, 10 mg/ml CS, read-out: concentration for half-maximal velocity (Km for PAPS)
  Km: < 100 µM
CHST3; highest point of the curve of FIG. 10B
  optimal concentration (visually determined): about 0.5 mM

## Nc1ncnc2c1ncn2[C@@H]1O[C@H](CO)[C@@H](OP(=O)(O)O)[C@H]1O [3′-AMP]
gPAPP [1]; 10 nmol nucleotide, pH 7.5
  activity of gPAPP alone on the nucleotide: not

## O=[N+]([O-])c1ccc(O)cc1 [pNP, p-nitrophenol]
SULT1A1 [3]
  Km: < 1000 nM
SULT1A1 [4]
  concentration above which substrate inhibition was present: above 4 mM
SULT1A1 [4]; projected
  concentration for half maximum velocity: < 1.0 µM

## Nc1ncnc2c1ncn2[C@@H]1O[C@H](COP(=O)(O)O)[C@@H](OP(=O)(O)O)[C@H]1O [PAP, 3′-phosphoadenosine-5′-phosphate]
gPAPP [1]; 10 nmol nucleotide, 1 μg gPAPP and 0.1 μg CD73, 10 mM Mg2+, pH 7.5
  phosphate released by gPAPP and CD73 together compared with gPAPP alone: twice as much
gPAPP [1]; 10 nmol nucleotide, pH 7.5
  activity of gPAPP alone on the nucleotide: showed activity
gPAPP [1]
  phosphate released by gPAPP versus amount of gPAPP: increased with the amount of the enzyme
sulfotransferases
  inhibition of sulfotransferases: potent inhibitor
